Where a name gives a salt, the structure may show the parent alone.
Assays:
[1] = system: human monocyte stimulated cytokine production (TNF-α); experiment: Monocyte assay (LPS-stimulated TNF-α production); type: cell-based; settings: 24 h, 200 ng/mL LPS, TNF-α by ELISA
Procedure, shortened: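 TNF-α release was measured by ELISA after 24 hrs at 37 C. Cells were stimulated with 200 ng/mL E. coli LPS, with compound added 30 minutes beforehand (0.1% DMSO vehicle). Cells were Ficoll/MACS-isolated CD14+ human monocytes adhered at 1×10^6 cells/mL, and viability was checked by trypan blue.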

[2] = target: T1, Recombinant human IKKβ (residues 1-737) (Homo sapiens, UniProt O14920); experiment: IKK2 assay (TR-FRET); type: biochemical; settings: ATP 1 μM final, read-out: pIC50 against IKK2 (converted)
T1 construct: Recombinant human IKKβ (residues 1-737); GST (C); made in house
T1 sequence (O14920 1-737): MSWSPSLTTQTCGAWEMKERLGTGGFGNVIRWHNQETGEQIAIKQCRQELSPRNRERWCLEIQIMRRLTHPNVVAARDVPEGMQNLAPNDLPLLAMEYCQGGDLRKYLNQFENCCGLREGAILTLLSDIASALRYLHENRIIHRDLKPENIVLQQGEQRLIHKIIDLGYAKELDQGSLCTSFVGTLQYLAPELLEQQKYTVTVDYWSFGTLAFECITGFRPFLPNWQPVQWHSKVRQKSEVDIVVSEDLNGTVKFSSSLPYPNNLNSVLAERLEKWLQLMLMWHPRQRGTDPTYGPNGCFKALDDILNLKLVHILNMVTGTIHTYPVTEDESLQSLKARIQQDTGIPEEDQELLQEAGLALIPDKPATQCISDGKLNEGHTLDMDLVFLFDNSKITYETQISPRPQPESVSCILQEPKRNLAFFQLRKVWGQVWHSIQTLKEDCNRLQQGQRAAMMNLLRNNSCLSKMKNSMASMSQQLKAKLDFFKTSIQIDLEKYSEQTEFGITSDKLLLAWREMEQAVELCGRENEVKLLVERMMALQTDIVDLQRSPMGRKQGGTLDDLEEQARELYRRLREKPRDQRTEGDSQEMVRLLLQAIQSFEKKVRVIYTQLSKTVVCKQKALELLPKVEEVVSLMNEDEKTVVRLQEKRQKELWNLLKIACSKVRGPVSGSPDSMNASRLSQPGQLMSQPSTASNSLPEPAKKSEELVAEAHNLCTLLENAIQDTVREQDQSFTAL
Procedure, shortened: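 TR-FRET readout (665 nm over 620 nm Eu reference) of GST-IB Ser32/36 phosphorylation after 60 min detection. Reaction: 1 μM ATP, 25 nM substrate, 0.5-5 nM GST-fused IKKβ 1-737 from baculovirus, pH 7.4 HEPES buffer, 1.7% DMSO, 15 min room temperature, EDTA-terminated.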

SMILES | IC50 [1] | IC50 [2]
CCS(=O)(=O)N1CCC(c2c[nH]c3c(C(N)=O)cc(-c4cccc(CNS(=O)(=O)c5ccc(Cl)cc5)c4)cc23)CC1 [Example 372, 5-[3-({[(4-chlorophenyl)sulfonyl]amino}methyl)phenyl]-3-[1-(ethylsulfonyl)-4-piperidinyl]-1H-indole-7-carboxamide] | ≤ 1.5 µM | ≤ 10 µM
CCS(=O)(=O)N1CCC(c2c[nH]c3c(C(N)=O)cc(-c4cccc(CNS(=O)(=O)c5cccc(F)c5)c4)cc23)CC1 [Example 373, 3-[1-(ethylsulfonyl)-4-piperidinyl]-5-[3-({[(3-fluorophenyl)sulfonyl]amino}methyl)phenyl]-1H-indole-7-carboxamide] | ≤ 1.5 µM | ≤ 10 µM
CCS(=O)(=O)N1CCC(c2c[nH]c3c(C(N)=O)cc(-c4cccc(CNS(=O)(=O)c5cc(F)ccc5C)c4)cc23)CC1 [Example 377, 3-[1-(ethylsulfonyl)-4-piperidinyl]-5-[3-({[(5-fluoro-2-methylphenyl)sulfonyl]amino}methyl)phenyl]-1H-indole-7-carboxamide] | > 1 µM | ≤ 10 µM
CCS(=O)(=O)N1CCC(c2c[nH]c3c(C(N)=O)cc(-c4cccc(CNS(=O)(=O)c5cn(C)c(C)n5)c4)cc23)CC1 [Example 378, 5-[3-({[(1,2-dimethyl-1H-imidazol-4-yl)sulfonyl]amino}methyl)phenyl]-3-[1-(ethylsulfonyl)-4-piperidinyl]-1H-indole-7-carboxamide] | > 1 µM | ≤ 10 µM
CCS(=O)(=O)N1CCC(c2c[nH]c3c(C(N)=O)cc(-c4cccc(CNS(=O)(=O)c5ccc(F)cc5)c4)cc23)CC1 [Example 380, 3-[1-(ethylsulfonyl)-4-piperidinyl]-5-[3-({[(4-fluorophenyl)sulfonyl]amino}methyl)phenyl]-1H-indole-7-carboxamide] | ≤ 1.5 µM | ≤ 10 µM
CCc1cc(Br)ccc1S(=O)(=O)NCc1cccc(-c2cc(C(N)=O)c3[nH]cc(C4CCN(S(=O)(=O)CC)CC4)c3c2)c1 [Example 381, 5-[3-({[(4-bromo-2-ethylphenyl)sulfonyl]amino}methyl)phenyl]-3-[1-(ethylsulfonyl)-4-piperidinyl]-1H-indole-7-carboxamide] | > 1 µM | ≤ 10 µM
CCS(=O)(=O)N1CCC(c2c[nH]c3c(C(N)=O)cc(-c4cccc(CNS(=O)(=O)c5ccc(C(C)(C)C)cc5)c4)cc23)CC1 [Example 383, 5-{3-[({[4-(1,1-dimethylethyl)phenyl]sulfonyl}amino)methyl]phenyl}-3-[1-(ethylsulfonyl)-4-piperidinyl]-1H-indole-7-carboxamide] | ≤ 1.5 µM | ≤ 10 µM
CCS(=O)(=O)N1CCC(c2c[nH]c3c(C(N)=O)cc(-c4cccc(CNS(=O)(=O)c5cccc6nonc56)c4)cc23)CC1 [Example 385, 5-(3-{[(2,1,3-benzoxadiazol-4-ylsulfonyl)amino]methyl}phenyl)-3-[1-(ethylsulfonyl)-4-piperidinyl]-1H-indole-7-carboxamide] | > 1 µM | ≤ 10 µM
CCS(=O)(=O)N1CCC(c2c[nH]c3c(C(N)=O)cc(-c4ccc(CNOC)cc4)cc23)CC1 [Example 390, 3-[1-(ethylsulfonyl)-4-piperidinyl]-5-(4-{[(methyloxy)amino]methyl}phenyl)-1H-indole-7-carboxamide] | > 1 µM | ≤ 10 µM
CCS(=O)(=O)N1CCC(c2c[nH]c3c(C(N)=O)cc(-c4csc(CN5CCC[C@H]5C(F)(F)F)c4)cc23)CC1 [Example 393, 3-[1-(ethylsulfonyl)-4-piperidinyl]-5-(5-{[(2S)-2-(trifluoromethyl)-1-pyrrolidinyl]methyl}-3-thienyl)-1H-indole-7-carboxamide trifluoroacetate] | > 1 µM | ≤ 10 µM
CC(C)S(=O)(=O)N1CCC(c2c[nH]c3c(C(N)=O)cc(-c4csc(CN5CC[C@H](O)C5)c4)cc23)CC1 [Example 395, 5-(5-{[(3S)-3-hydroxy-1-pyrrolidinyl]methyl}-3-thienyl)-3-{1-[(1-methylethyl)sulfonyl]-4-piperidinyl}-1H-indole-7-carboxamide] | ≤ 1.5 µM | ≤ 10 µM
CC(C)S(=O)(=O)N1CCC(c2c[nH]c3c(C(N)=O)cc(-c4csc(CN(C)C5CCCC5)c4)cc23)CC1 [Example 396, 5-(5-{[cyclopentyl(methyl)amino]methyl}-3-thienyl)-3-{1-[(1-methylethyl)sulfonyl]-4-piperidinyl}-1H-indole-7-carboxamide] | ≤ 1.5 µM | ≤ 10 µM
CC(C)S(=O)(=O)N1CCC(c2c[nH]c3c(C(N)=O)cc(-c4csc(CN(C)CCO)c4)cc23)CC1 [Example 397, 5-(5-{[(2-hydroxyethyl)(methyl)amino]methyl}-3-thienyl)-3-{1-[(1-methylethyl)sulfonyl]-4-piperidinyl}-1H-indole-7-carboxamide] | ≤ 1.5 µM | ≤ 10 µM

Results, then the compound that gave them:

IC50 [1] | IC50 [2] | SMILES
≤ 1.5 µM | ≤ 10 µM | CCS(=O)(=O)N1CCC(c2c[nH]c3c(C(N)=O)cc(-c4cccc(CNS(=O)(=O)c5ccc(Br)cc5)c4)cc23)CC1 [Example 371, 5-[3-({[(4-bromophenyl)sulfonyl]amino}methyl)phenyl]-3-[1-(ethylsulfonyl)-4-piperidinyl]-1H-indole-7-carboxamide]
> 1 µM | ≤ 10 µM | CCS(=O)(=O)N1CCC(c2c[nH]c3c(C(N)=O)cc(-c4cccc(CNS(=O)(=O)c5ccccc5Cl)c4)cc23)CC1 [Example 374, 5-[3-({[(2-chlorophenyl)sulfonyl]amino}methyl)phenyl]-3-[1-(ethylsulfonyl)-4-piperidinyl]-1H-indole-7-carboxamide]
> 1 µM | ≤ 10 µM | CCS(=O)(=O)N1CCC(c2c[nH]c3c(C(N)=O)cc(-c4cccc(CNS(=O)(=O)c5cc(Cl)sc5Cl)c4)cc23)CC1 [Example 375, 5-[3-({[(2,5-dichloro-3-thienyl)sulfonyl]amino}methyl)phenyl]-3-[1-(ethylsulfonyl)-4-piperidinyl]-1H-indole-7-carboxamide]
≤ 1.5 µM | ≤ 10 µM | CCS(=O)(=O)N1CCC(c2c[nH]c3c(C(N)=O)cc(-c4cccc(CNS(=O)(=O)c5c(C)cccc5Cl)c4)cc23)CC1 [Example 376, 5-[3-({[(2-chloro-6-methylphenyl)sulfonyl]amino}methyl)phenyl]-3-[1-(ethylsulfonyl)-4-piperidinyl]-1H-indole-7-carboxamide]
> 1 µM | ≤ 10 µM | CCS(=O)(=O)N1CCC(c2c[nH]c3c(C(N)=O)cc(-c4cccc(CNS(=O)(=O)c5ccccc5)c4)cc23)CC1 [Example 379, 3-[1-(ethylsulfonyl)-4-piperidinyl]-5-(3-{[(phenylsulfonyl)amino]methyl}phenyl)-1H-indole-7-carboxamide]
> 1 µM | ≤ 10 µM | CCS(=O)(=O)N1CCC(c2c[nH]c3c(C(N)=O)cc(-c4ccc(N5CCN(C)CC5=O)cc4)cc23)CC1 [Example 388, 3-[1-(ethylsulfonyl)-4-piperidinyl]-5-[4-(4-methyl-2-oxo-1-piperazinyl)phenyl]-1H-indole-7-carboxamide]
> 1 µM | ≤ 10 µM | CCS(=O)(=O)N1CCC(c2c[nH]c3c(C(N)=O)cc(-c4ccc(N5CCN(C(C)=O)CC5)nc4)cc23)CC1 [Example 389, 5-[6-(4-acetyl-1-piperazinyl)-3-pyridinyl]-3-[1-(ethylsulfonyl)-4-piperidinyl]-1H-indole-7-carboxamide trifluoroacetate]
> 1 µM | ≤ 10 µM | CCS(=O)(=O)N1CCC(c2c[nH]c3c(C(N)=O)cc(-c4csc(CN5CCC(N6CCCC6)CC5)c4)cc23)CC1 [Example 392, 3-[1-(ethylsulfonyl)-4-piperidinyl]-5-(5-{[4-(1-pyrrolidinyl)-1-piperidinyl]methyl}-3-thienyl)-1H-indole-7-carboxamide trifluoroacetate]
≤ 1.5 µM | ≤ 10 µM | CC(C)S(=O)(=O)N1CCC(c2c[nH]c3c(C(N)=O)cc(-c4csc(CN5CCC[C@@H]5CO)c4)cc23)CC1 [Example 394, 5-(5-{[(2R)-2-(hydroxymethyl)-1-pyrrolidinyl]methyl}-3-thienyl)-3-{1-[(1-methylethyl)sulfonyl]-4-piperidinyl}-1H-indole-7-carboxamide]

— US8063071B2 (GlaxoSmithKline, LLC, priority 2007, dated 2011)
